{"source": "paper PMC7782499", "about": "“Progerinin, an optimized progerin-lamin A binding inhibitor, ameliorates premature senescence phenotypes of Hutchinson-Gilford progeria syndrome” (Communications Biology, 2021)", "format_in_all_cases": "in vitro ADME", "key": {"CYP2C19": {"target": "CYP2C19 (Homo sapiens, UniProt P33261)", "sequence (P33261 whole entry)": "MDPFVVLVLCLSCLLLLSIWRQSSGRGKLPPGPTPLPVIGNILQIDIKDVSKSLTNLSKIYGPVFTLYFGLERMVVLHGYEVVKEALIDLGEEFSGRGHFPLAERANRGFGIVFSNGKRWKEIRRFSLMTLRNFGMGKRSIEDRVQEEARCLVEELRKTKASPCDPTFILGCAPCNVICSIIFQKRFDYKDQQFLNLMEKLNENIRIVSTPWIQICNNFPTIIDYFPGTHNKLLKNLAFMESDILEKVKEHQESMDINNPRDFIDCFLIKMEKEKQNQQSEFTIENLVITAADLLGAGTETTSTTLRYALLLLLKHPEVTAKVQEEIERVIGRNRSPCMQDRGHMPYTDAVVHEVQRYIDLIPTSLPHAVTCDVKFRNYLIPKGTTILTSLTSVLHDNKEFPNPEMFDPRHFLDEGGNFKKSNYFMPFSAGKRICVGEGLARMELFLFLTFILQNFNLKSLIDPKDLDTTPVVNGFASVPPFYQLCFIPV", "experiment": "CYP inhibition, CYP2C19", "procedure": "(§1) For PK analysis, 5 mg/kg of JH4 in 10% DMSO, 5% Tween 90, and 95% saline solution were intravenously injected and 10 mg/kg of JH4 in 10% NMP and 90% PEG400 solution were orally delivered. At pre-set time-points, blood concentration of JH4 was determined by LC-MS/MS analysis[22],[23]. Other chemicals were also tested using similar protocol. In vitro ADME studies (plasma protein binding, CYP inhibition, microsomal stability, plasma stability, and hERG inhibition) were performed by New Drug Development Center (Daegu, Korea) using standard protocols[24],[25]."}, "CYP2C9": {"target": "CYP2C9 (Homo sapiens, UniProt P11712)", "sequence (P11712 whole entry)": "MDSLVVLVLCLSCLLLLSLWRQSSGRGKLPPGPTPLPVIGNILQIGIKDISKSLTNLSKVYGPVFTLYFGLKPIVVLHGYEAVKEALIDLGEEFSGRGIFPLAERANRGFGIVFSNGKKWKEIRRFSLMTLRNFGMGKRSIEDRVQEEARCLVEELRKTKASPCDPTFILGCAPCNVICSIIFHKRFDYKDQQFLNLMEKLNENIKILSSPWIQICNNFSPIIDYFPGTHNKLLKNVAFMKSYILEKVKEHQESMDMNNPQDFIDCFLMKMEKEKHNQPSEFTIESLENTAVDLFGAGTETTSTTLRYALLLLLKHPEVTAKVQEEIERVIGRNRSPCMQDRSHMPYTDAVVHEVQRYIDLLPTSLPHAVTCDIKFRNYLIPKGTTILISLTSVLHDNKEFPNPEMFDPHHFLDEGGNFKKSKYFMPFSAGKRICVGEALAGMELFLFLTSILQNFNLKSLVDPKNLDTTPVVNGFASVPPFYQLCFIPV", "experiment": "CYP inhibition, CYP2C9", "set-up": "unit not given here", "procedure": "as §1, with “At” for “For PK analysis, 5 mg/kg of JH4 in 10% DMSO, 5% Tween 90, and 95% saline solution were intravenously injected and 10 mg/kg of JH4 in 10% NMP and 90% PEG400 solution were orally delivered. At”"}, "CYP1A2": {"target": "T1, CYP1A2 (Homo sapiens, UniProt P05177)", "T1 sequence (P05177 1-516)": "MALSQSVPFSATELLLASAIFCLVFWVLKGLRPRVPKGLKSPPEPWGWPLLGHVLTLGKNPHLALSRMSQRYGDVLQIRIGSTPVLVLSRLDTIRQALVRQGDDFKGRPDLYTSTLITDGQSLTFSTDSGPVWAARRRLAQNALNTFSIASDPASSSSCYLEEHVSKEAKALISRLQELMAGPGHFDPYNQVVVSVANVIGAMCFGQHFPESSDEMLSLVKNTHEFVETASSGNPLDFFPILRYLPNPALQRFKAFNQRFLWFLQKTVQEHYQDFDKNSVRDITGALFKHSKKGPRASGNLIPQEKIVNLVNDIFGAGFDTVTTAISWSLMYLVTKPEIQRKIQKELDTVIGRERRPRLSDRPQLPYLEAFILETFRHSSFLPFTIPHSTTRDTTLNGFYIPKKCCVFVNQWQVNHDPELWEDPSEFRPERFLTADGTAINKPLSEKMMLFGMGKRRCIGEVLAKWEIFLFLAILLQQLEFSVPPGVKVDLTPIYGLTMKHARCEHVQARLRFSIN", "experiment": "CYP inhibition, CYP1A2", "procedure": "as §1, with “At” for “For PK analysis, 5 mg/kg of JH4 in 10% DMSO, 5% Tween 90, and 95% saline solution were intravenously injected and 10 mg/kg of JH4 in 10% NMP and 90% PEG400 solution were orally delivered. At”"}}, "note": "Several values for one entry are separate records, joined by “and”; a condition that tells them apart may be missing. Identical values can stand only once."}
{"smiles": "CC(=O)N1CCN(c2ccc(OCC3COC(Cn4ccnc4)(c4ccc(Cl)cc4Cl)O3)cc2)CC1", "note": "(stereo not drawn) [Ketoconazole, reference compound]", "values": [{"measurement": "CYP inhibition", "setting": "CYP2C19", "result": "99.5 and > 100"}, {"measurement": "CYP inhibition", "setting": "CYP2C9", "result": 100}, {"measurement": "CYP inhibition", "setting": "CYP1A2", "result": 99.1}]}
